For one compound, EC50 results are on record in BindingDB's records for doi:10.1016/j.bmcl.2006.10.013 (Abbott Laboratories, 2007).

This assay deals with Transcription factor Jun (Homo sapiens, UniProt P05412). The assay is described as follows: Inhibition of c-Jun phosphorylation in HepG2 cells.

The structures appear in SMILES notation.

Chain of Transcription factor Jun (P05412 whole entry): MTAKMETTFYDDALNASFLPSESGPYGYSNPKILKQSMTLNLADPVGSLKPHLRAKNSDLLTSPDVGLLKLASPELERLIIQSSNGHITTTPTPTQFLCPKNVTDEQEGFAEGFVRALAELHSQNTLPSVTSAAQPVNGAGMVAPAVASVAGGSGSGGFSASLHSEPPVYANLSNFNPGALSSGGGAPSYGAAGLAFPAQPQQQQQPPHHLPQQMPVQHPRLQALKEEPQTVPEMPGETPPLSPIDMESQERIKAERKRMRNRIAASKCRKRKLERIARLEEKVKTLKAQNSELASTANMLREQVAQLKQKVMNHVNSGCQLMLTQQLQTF

For the compound `CCOc1nc(C(=O)NCc2ccc(S(C)(=O)=O)cc2)cc(N)c1C#N` [4-amino-5-cyano-6-ethoxy-N-[(4-methanesulfonylphenyl)methyl]pyridine-2-carboxamide], the half-maximal effective concentration (EC50) (in general, the concentration giving half of the maximal effect) came to 318 nM.
